Patent US10561611B2, “Combination liposomal pharmaceutical formulations” (Cureport, Inc., priority 2015, dated 2020)

Assay: in vivo
Details: male, CD-1, mouse, iv
Description: Male CD-1 mice ranging from 20-25 g body weight were split up into groups of three. Each mouse was administered with a single dose of CPT319A or CPT307A at 5 mg/kg DXR by intravenous (IV) injection through the tail vein. A non-liposomal combination of DXR was used as the control. Blood samples were collected at 0.167, 1, 3, 8, 24, and 48 h after the injection. DXR plasma concentration was determined by liquid chromatography-tandem mass spectrometry (LC-MS-MS).

AUC: 688 ng·h/mL
AUC (5 mg/kg): 688 ng·h/mL
Structure (SMILES): COc1cccc2c1C(=O)c1c(O)c3c(c(O)c1C2=O)C[C@@](O)(C(=O)CO)C[C@@H]3O[C@H]1C[C@H](N)[C@H](O)[C@H](C)O1 [Naked DXR, doxorubicin]
